Experimental data from US20130230580A1, “Administration of SNS Neuroprotective Agents to Promote Hematopoietic Regeneration” (priority 2010, published 2013).
Several values for one entry are separate records, joined by “and”; a condition that tells them apart may be missing. Equal values may be shown once. Entries after “also recorded” stand apart in the source; their conditions may differ.

Legend:
[1] = Survival after lethal irradiation and bone marrow transplantation; type: in vivo
Protocol: To protect from kidney damage, mice were simultaneously subcutaneously (s.c.) injected with 1 mL of saline solution.
(§1) To induce acute peripheral sympathectomy, mice received two i.p. injections of 60HDA (Sigma; 100 mg/kg on day 0; 250 mg/kg on day 2). Three days after the last injection of 60HDA mice were euthanized for analysis, transplanted (see below) or injected with 5-fluorouracil (see below).
(§2) Mice were irradiated (1,200 cGy, two split doses, 3 hours apart) in a Cesium Mark 1 irradiator (JL Shepperd & associates). Three hours later, the indicated number of BMNCs was injected retroorbitally in the irradiated recipients under isoflurane (Phoenix Pharmaceuticals) anesthesia. Mice were allowed to recover and analyzed at the indicated time points.
(§3) To induce neuroprotection from 60HDA, mice were injected with 4-MC (10 μg/kg; i.p.) or GDNF-Fc (5 μg per mice; s.c.) for 5 days, starting the treatment the same day as the first injection of 60HDA.

bone marrow [2] = experiment: Steady-state bone marrow analysis after cisplatin or 60HDA treatment; type: in vivo, mice; conditions: 3 days after last 60HDA injection
Protocol: To protect from kidney damage, mice were simultaneously subcutaneously (s.c.) injected with 1 mL of saline solution. Four weeks after the last injection of cisplatin, mice were euthanized for analysis, transplanted (see below) or mobilized with granulocyte colony-stimulating factor (G-CSF, see below).
as §1
Blood was harvested by retro-orbital sampling of mice anesthetized with isoflurane and collected in polypropylene tubes containing ethylenediaminetetraacetic acid (EDTA). Blood parameters were determined with an AcT differential counter (Beckman-Coulter). […] For flow cytometry, red blood cells were lysed thrice for 5 minutes at 4° C. in 0.15 M NH4Cl, cells were washed once in ice-cold PBS and counted in a hemocytometer. […] Cells were further stained with streptavidin-Cy5 (Jackson Immunotech) and analyzed with a BD LSR11 system (BD Biosciences). Bone marrow was harvested by flushing the bone with 1 mL of ice-cold PBS, red blood cells were lysed once for 5 minutes at 4° C. in 0.15 M NH4Cl, cells were washed once in ice-cold PBS and counted with a hemocytometer. […]

[3] = Complete blood counts of moribund 6OHDA-treated mice after 5FU; type: in vivo; conditions: for CH / CHCM / HDW / HCT / Hgb / MCH / MCHC / RDW: moribund 6OHOA-treated mouse
Protocol: as §1
(§4) To induce bone marrow ablation and force quiescent HSC to proliferate, 5FU (250 mg/kg; Sigma) was injected i.v. under isoflurane (Phoenix Pharmaceuticals) anesthesia. Mice were allowed to recover and analyzed at the indicated time points.
(§5) Blood was harvested by retro-orbital sampling of mice anesthetized with isoflurane and collected in polypropylene tubes containing ethylenediaminetetraacetic acid (EDTA). Blood parameters were determined with an AcT differential counter (Beckman-Coulter). CFU-C assays were performed as described in He et al., Ann. Rev. Cell. Dev. Biol. 25:377 (2009), incorporated herein by reference. For flow cytometry, red blood cells were lysed thrice for 5 minutes at 4° C. in 0.15 M NH4Cl, cells were washed once in ice-cold PBS and counted in a hemocytometer. To determine Lin^−Sca1^+c-kit^+ or Lin^−Sca1^+c-kit^+ft13^− numbers, 10^6 cells were stained with the Mouse Lineage Panel (BD Biosciences) together with FITC-conjugated anti-Sca-1 antibody (BD Biosciences), PE-Cy7-conjugated anti-c-kit antibody (eBioscience) and PE-conjugated anti-flt3 antibody (eBioscience). Cells were further stained with streptavidin-Cy5 (Jackson Immunotech) and analyzed with a BD LSR11 system (BD Biosciences). Bone marrow was harvested by flushing the bone with 1 mL of ice-cold PBS, red blood cells were lysed once for 5 minutes at 4° C. in 0.15 M NH4Cl, cells were washed once in ice-cold PBS and counted with a hemocytometer. CFU-C and Lin^−Sca1^+c-kit^+ft13^− numbers were determined as above. In some experiments, CD150^+CD48^− cell numbers were determined by staining 5×10^6 cells with PE-anti-CD48 antibody (BD Biosciences) and PE-Cy7-anti-CD150 antibody (Biolegend).

[4] = Survival after 5FU injection in 60HDA-sympathectomized mice; type: in vivo
Protocol: as §1, §4, §3

bone marrow [5] = experiment: CFU-C homing efficiency to bone marrow; type: in vivo; conditions: compared to control mice, 24 hours after irradiation and BMNC injection
bone marrow [6] = experiment: Bone marrow regeneration after 5FU (or sublethal irradiation) in 60HDA-sympathectomized mice; type: in vivo
Protocol: as §1, §4, §3, §5

bone marrow [7] = experiment: Bone marrow hematopoietic recovery after transplantation (BMNC, CFU-C, Lin-Sca1+c-kit+flt3- cells); type: in vivo, mice; conditions: for hematopoietic recovery in BM after transplantation (progenitors, Lin-Sca1+c-kit+flt3- cells, total BM): about 4 weeks / 30 days post-transplantation, vs saline
Protocol: as §2, with “points. […]” for “points.”
as §5

Nestin+ niche cells = experiment: HSC niche cell analyses (Nestin+ cells, osteoblasts, endothelial cells, macrophages, α-SMA+ cells); type: in vivo
Text: Since the SNS directs HSC trafficking by acting on Nestin^+ niche cells through the β3 adrenergic receptor, the changes that occurred in the HSC niche after SNS injury and genotoxic insult were investigated. […] The reason for reduced Nestin^+ numbers in SNS-injured mice during BM recovery was then investigated.

TH+ fibers = experiment: Immunofluorescence quantification of TH+ sympathetic fibers in bone marrow / calvaria
Protocol: Bones were collected and fixed for 1 hour in 4% paraformaldehyde (PFA) in PBS (Electron Microscopy Sciences) at 4° C. They were then post-fixed overnight in 1% PFA in PBS at 4° C. and cryoprotected for 24 hours in 30% sucrose. Bones were then included in OCT (Tissue Tek), sectioned (14 μm sections) in a Cryostat, and mounted on CFSA 4× Slides (Leica). TH^+ immunofluorescence staining was performed as previously described in Mendez-Ferrer, et al., Nature 452:442 (2008), incorporated herein by reference. For each mouse analyzed, the number of nerve fibers in 6 fields was quantified and plotted as per mm^2. For whole-mount immunofluorescence, calvaria were harvested by cutting along the temporal lines of the skull and immediately fixed in methanol. Bone tissues were blocked/permeabilized in PBS containing 20% FCS and 0.5% Triton and stained with APC-conjugated anti-PECAM CD31 antibody and TH (Millipore). Signal amplification for TH staining was achieved by using a signal amplification kit (Perkin Elmer). Whole-mount tissues were imaged face-down on an upright Olympus BX61WI microscope. The area between the frontal and parietal bones was identified by moving along the coronal suture and images were obtained from the same area for all mice, along the coronal vein on either side of the central vein. The numbers of individual nerve fibers running alongside blood vessels were quantified and plotted as per 100 μm vessel segment. All images were processed using Slidebook software (Intelligent Imaging Innovations, Inc.).

β3 adrenergic receptors = target: T1, β3 adrenergic receptors (Mus musculus, UniProt P25962); experiment: β3 adrenergic blockade during 5FU-induced BM regeneration; type: in vivo, mice
T1 construct: β3 adrenergic receptors expressed by niche cells; from tissue; host or cells: live mice (wild-type or Adrb2-/-); receptor expressed by bone marrow niche cells
Protocol: as §4
To investigate the role of β2 or β3 adrenergic receptors in bone marrow regeneration, β3 adrenergic signaling was blocked in wild-type or Adrb2^tm1Bkk/J mice by injecting the β3-specific antagonist SR59230A (5 mg/kg, i.p.; Sigma), daily for 3 days.

[8] = 10 days after 5FU (250 mg/kg), listed as 6OHOA
[9] = 60HDA-treated mice, eight days after 5FU
[10] = 60HDA-lesioned mice plus agent, 12 days after 5FU
[11] = cisplatin-treated mice plus 4-MC

T1 sequence (P25962 whole entry): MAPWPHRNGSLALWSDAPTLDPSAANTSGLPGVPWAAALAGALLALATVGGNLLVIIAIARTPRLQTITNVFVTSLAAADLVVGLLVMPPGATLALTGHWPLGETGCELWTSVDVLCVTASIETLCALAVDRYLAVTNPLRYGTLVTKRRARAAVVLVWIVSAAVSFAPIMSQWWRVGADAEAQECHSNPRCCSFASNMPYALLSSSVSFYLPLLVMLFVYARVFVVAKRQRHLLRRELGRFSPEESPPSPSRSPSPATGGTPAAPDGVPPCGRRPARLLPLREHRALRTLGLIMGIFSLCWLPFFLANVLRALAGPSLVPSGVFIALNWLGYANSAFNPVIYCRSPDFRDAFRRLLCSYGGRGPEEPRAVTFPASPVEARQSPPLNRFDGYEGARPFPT

## NCCc1cc(O)c(O)cc1O [60HDA, 6-hydroxydopamine]
[1]; lethally irradiated, transplanted with wild-type BMNC
  mortality after transplantation: significant increase in mortality
Bone marrow [2]
  BM cellularity, CFU-C, Lin-Sca1+c-kit+flt3-, CD48-CD150+ cell numbers, Lin-Sca1+c-kit+ cell cycling: did not alter; also recorded: does not induce significant changes
[3]; 60HDA-sympathectomized mice
  cause of reduced survival after 5FU: BM failure
[3]; 8 days after 5FU (250 mg/kg)
  CH: 13.3 pg and 12.8 pg and 12.9 pg
  CHCM: 32.8 g·dL and 31.8 g·dL and 31.2 g·dL
  HDW: 2.34 g·dL and 1.78 g·dL and 1.74 g·dL
[3]; 9 days after 5FU (250 mg/kg)
  CH: 13.5 pg
  CHCM: 33.7 g·dL and 33 g·dL
  HCT: 11
  HDW: 2.27 g·dL and 2.34 g·dL
  Hgb: 3 g·dL
  MCH: 9.7 pg and 9.1 pg
  MCHC: 24.3 g·dL and 22.3 g·dL
  RDW: 12.5 and 12.6
[3]; [8]
  CH: 12.8 pg and 12.9 pg
  CHCM: 29.3 g·dL and 30.5 g·dL
  HCT: 13 and 10
  HDW: 1.67 g·dL and 2.03 g·dL
  Hgb: 4 g·dL and 6 g·dL
  MCH: 12.8 pg and 18.9 pg
  MCHC: 29.3 g·dL and 44.4 g·dL
  RDW: 12.2 and 13.2
[3]; 11 days after 5FU (250 mg/kg)
  CH: 13.2 pg
  CHCM: 30.7 g·dL
  HCT: 14
  HDW: 1.95 g·dL
  Hgb: 3 g·dL
  MCH: 10.5 pg
  MCHC: 24.3 g·dL
  RDW: 11.3
[3]; 12 days after 5FU (250 mg/kg)
  CH: 12.6 pg
  CHCM: 31.1 g·dL
  HCT: 15
  HDW: 2.31 g·dL
  Hgb: 3 g·dL
  MCH: 9.3 pg
  MCHC: 22.9 g·dL
  RDW: 13.5
[4]; 60HDA-sympathectomized vs saline mice
  survival after 5FU: dramatically reduced their survival
Bone marrow [5]
  CFU-C homing efficiency: No differences; also recorded: No defect
Bone marrow [6]; 60HDA-sympathectomized mice, day 12
  hematopoietic recovery after 5FU: significantly impaired hematopoietic recovery
Bone marrow [6]; 60HDA-treated mice, 12 days after irradiation
  BM recovery after sublethal irradiation: Reduced BM recovery
Bone marrow [6]; 60HDA-treated mice, days 4 to 12
  Lin-Sca1+c-kit+flt3- cell expansion after 5FU: blunted
Bone marrow [6]; [9]
  LSK cell proliferation: increased proliferation
  LSK cell viability: reduced viability
Bone marrow [7]
  hematopoietic recovery in BM after transplantation (progenitors, Lin-Sca1+c-kit+flt3- cells, total BM): significant reductions in hematopoietic recovery; also recorded: delayed hematopoietic recovery
Nestin+ niche cells; 60HDA mice, 24 hours after 5FU
  Nestin+ cell death (apoptosis): significant increase
Nestin+ niche cells; 60HDA- vs saline-treated mice
  endothelial cells, BM monocyte/macrophages, α-SMA+ perivascular cells 12 days after 5FU: failed to detect differences
Nestin+ niche cells; 60HDA-sympathectomized mice
  Nestin+ cell numbers 12 days after 5FU: severe deficit
Nestin+ niche cells; 60HDA-treated vs saline mice
  endothelial cells, osteoblasts, CD68+ cells, α-SMA+ perivascular cells by immunofluorescence prior to 5FU: did not reveal differences
  number of Nestin+ cells prior to 5FU: significant increase
  osteoblast numbers prior to 5FU: slightly increased

## Cc1ccc(O)c(O)c1 [4-MC, 4-methylcatechol]
[1]; cisplatin-treated mice plus agent
  survival after transplantation with neuroprotective agent: no death was observed; also recorded: completely abolished transplant-associated death; also recorded: completely prevented neuropathy-induced death
[4]; 60HDA-lesioned mice plus agent
  survival after 5FU with neuroprotective agent: completely protected from death; also recorded: completely abolished 5FU-associated cell death
Bone marrow [6]; 60HDA-lesioned mice plus 4-MC, after 5FU
  HSC recovery by competitive repopulation assays: significant increase in HSC recovery
Bone marrow [6]; [10]
  hematopoietic recovery after 5FU with neuroprotective agent (BM, LSKF cells): increased hematopoietic recovery; also recorded: significantly increased
Bone marrow [6]; sympathectomized mice treated with 4-MC, TrkA restricted to nervous system
  BM recovery after 5FU in Tα1-Cre:TrkANeo/Neo mice: recovery comparable to that of wild-type mice
TH+ fibers; [10]
  TH+ / SNS fiber recovery: induced TH^+ fiber recovery; also recorded: significant recovery in the number of BM SNS fibers; also recorded: protects sympathetic fibers
TH+ fibers; cisplatin+4-MC compared to cisplatin+saline, p<0.05
  increase in bone marrow TH+ fiber density: 2 fold
Bone marrow [7]; cisplatin-treated mice plus 4-MC, after transplantation
  HSC frequency and absolute numbers (LTC-IC, competitive repopulation assays): higher frequency and absolute numbers of HSC
Bone marrow [7]; cisplatin-treated mice plus agent, one month after transplantation
  bone marrow regeneration after transplantation with neuroprotective agent (BM cellularity, progenitor counts, LSKF cells): accelerated bone marrow regeneration; also recorded: significantly improves hematopoietic cell counts
Nestin+ niche cells; 60HDA mice plus 4-MC
  Nestin+ cell number 12 days after 5FU: restored normal Nestin^+ cell number
  SNS-injury-induced expansion of Nestin+ cells and osteoblasts prior to 5FU: abolished the expansion
Nestin+ niche cells; 60HDA mice plus 4-MC, before or after 5FU
  other niche cells (endothelial cells, BM macrophages, perivascular α-SMA cells): did not affect other niche cells
Nestin+ niche cells; [11]
  endothelial cells, BM macrophages, perivascular α-SMA+ cells before BMT: without affecting
  expansion in Nestin+ cells and osteoblasts before BMT: ameliorated the expansion

## CCc1ccccc1OC[C@@H](O)CN[C@H]1CCCc2ccccc21 [SR59230A]
β3 adrenergic receptors; Adrb2-/- mice plus SR59230A
  hematopoietic regeneration after 5FU with both β2 and β3 receptors disrupted: most severe impairment; also recorded: severe impairment in hematopoietic regeneration
β3 adrenergic receptors; wild-type mice, SR59230A alone
  hematopoietic recovery after 5FU under β3 blockade: sufficient to impair hematopoietic regeneration; also recorded: partially compromised hematopoietic recovery

## N.N.O=C([O-])C1(C(=O)[O-])CCC1.[Pt+2] [carboplatin]
Bone marrow [7]
  hematopoietic recovery in BM after transplantation (progenitors, Lin-Sca1+c-kit+flt3- cells, total BM): not

## CC[C@]1(O)C[C@H]2CN(CCc3c([nH]c4ccccc34)[C@@](C(=O)OC)(c3cc4c(cc3OC)N(C=O)[C@H]3[C@@](O)(C(=O)OC)[C@H](OC(C)=O)[C@]5(CC)C=CCN6CC[C@]43[C@@H]65)C2)C1 [vincristine]
Bone marrow [7]; mouse, in vivo
  BM recovery 3 months after transplantation: not yet completely recovered
  HSC content by competitive repopulation assays: reduced HSC content
